The text below walks through data of the supplement of paper PMC11208160.
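Also: IS621 recombinase and bridge RNA in Escherichia coli cells.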

This data set in a line: recombinant barcode read abundance after kanamycin selection (control-corrected) (log10(CPM+1)); higher = more efficient recombination; sequences stand for … in AGTGCAGAGAAAATCGGCCAGTTTTCTCTGCCTGCAGTCCGCATGCCGT…AGATTTATGCAGCGGACTGCCTTTCTCCCAAAGTGATAAACCGGACAGTATCATGGACCGGTTTTCCCGGTAATCCGTATTTGCAAGGTTGGTTTCACT; site = the 11-nt target. Summed up: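 Pooled oligos, each joining a target to an IS621 bridge RNA target-binding loop, were cloned and co-electroporated with a donor plasmid into E. coli. Selective plates carried chloramphenicol/ampicillin/kanamycin and 0.1 mM IPTG, while chloramphenicol/ampicillin LB agar served as control, with two replicates of each. Recombination efficiency rests on averaged, control-corrected counts per million of barcodes at recombinant junctions, shown as log10(CPM+1).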
With “CATAGGCCTTGGGTTCTAACCTGTTGCAT (site CATAGTCCTAT)”, the “recombinant barcode read abundance (log10)” value was 0.105. The same measure for “CATAGTCCTTGGGTTCTAACCTGTTGCAT (site CATAGACCTAT)”: 0.213; for “CATAGTCCTTGGGTTCTAACCTGTTGCAT (site CATAGCCCTAT)”: 0.884; for “CATAGTCCTTGGGTTCTAACCTGTTGCAT (site CATAGGCCTAT)”: 0.0509.

Turning to “CATAGTCCTTGGGTTCTAACCTGTTGCAT (site CATAGTCCTAT)”, the “recombinant barcode read abundance (log10)” value is 0.923. For “CATCCCTCTTGGGTTCTAACCTGTTGCTT (site CATCCCTCTAA)”, the “recombinant barcode read abundance (log10)” value was 1.51.

Take “CATCCCTCTTGGGTTCTAACCTGTTGCTT (site CATCCGTCTAA)”: the “recombinant barcode read abundance (log10)” value turned out to be 0.0576. “CATCCGTCTTGGGTTCTAACCTGTTGCCT (site CATCCGACTAG)”: the “recombinant barcode read abundance (log10)” value is 0.105. As for “CATCCGTCTTGGGTTCTAACCTGTTGCCT (site CATCCGCCTAG)”, the figure is 0.0457.

Turning to “CATCCGTCTTGGGTTCTAACCTGTTGCCT (site CATCCGGCTAG)”, the “recombinant barcode read abundance (log10)” value was found to be 0.131. For “CATCCGTCTTGGGTTCTAACCTGTTGCCT (site CATCCGTCTAG)”, the “recombinant barcode read abundance (log10)” value amounted to 1.21.

Regarding “CATCCTACTTGGGTTCTAACCTGTTGCCG (site CATCCTACTAT)”, the “recombinant barcode read abundance (log10)” value was 0.0476. As for “CATCCTACTTGGGTTCTAACCTGTTGCCG (site CATCCTACTCG)”, the “recombinant barcode read abundance (log10)” value came to 0.156. The same measure for “CATCCTACTTGGGTTCTAACCTGTTGCCT (site CATCCTACTAG)”: 0.259; for “CATCCTACTTGGGTTCTAACCTGTTGCCT (site TCCAACTCTGT)”: 0.153; for “CATCGGACTTGGGTTCTAACCTGTTGCTA (site CATCGGACTTA)”: 0.834.

For the sequence “CATCGGACTTGGGTTCTAACCTGTTGCTA (site CATTGTACTTA)”, the “recombinant barcode read abundance (log10)” value turned out to be 0.347. With “CATCGGGCTTGGGTTCTAACCTGTTGCAG (site CATCGGGCTCT)”, the “recombinant barcode read abundance (log10)” value is 1.43.

Consider “CATCGGGCTTGGGTTCTAACCTGTTGCAG (site CCTCGGGCTCT)”, for which the “recombinant barcode read abundance (log10)” value was determined as 0.0832.

In the case of “CATCGGGCTTGGGTTCTAACCTGTTGCAG (site CGTCGGGCTCT)”, the “recombinant barcode read abundance (log10)” value was found to be 0.00527. The same measure for “CATCGGGCTTGGGTTCTAACCTGTTGCAG (site CTTCGGGCTCT)”: 0.292; for “CATGATGCTTGGGTTCTAACCTGTTGCCT (site CAAGATGCTAG)”: 0.256; for “CATGATGCTTGGGTTCTAACCTGTTGCCT (site CACGATGCTAG)”: 0.487. As for “CATGATGCTTGGGTTCTAACCTGTTGCCT (site CAGGATGCTAG)”, the “recombinant barcode read abundance (log10)” value was determined as 0.00956.

On to “CATGATGCTTGGGTTCTAACCTGTTGCCT (site CATGATGCTAG)”, for which the “recombinant barcode read abundance (log10)” value is 1.86. As for “CATGCCGCTTGGGTTCTAACCTGTTGCCT (site CATGACACTAG)”, the “recombinant barcode read abundance (log10)” value was 0.226. Take “CATGCCGCTTGGGTTCTAACCTGTTGCCT (site CATGCCGCTAG)”: the “recombinant barcode read abundance (log10)” value came out at 1.73. The same measure for “CATGGGCCTTGGGTTCTAACCTGTTGCCT (site CATGGGCCTAG)”: 0.0279; for “CATGGGCCTTGGGTTCTAACCTGTTGCCT (site CCTGGGCCTAG)”: 0.0246. Consider “CATGGGCCTTGGGTTCTAACCTGTTGCCT (site CGTGGGCCTAG)”, for which the “recombinant barcode read abundance (log10)” value is 0.151. As for “CATGGGCCTTGGGTTCTAACCTGTTGCCT (site CTTGGGCCTAG)”, the figure is 0.174; as for “CATGGGTCTTGGGTTCTAACCTGTTGCCT (site CATGGGTCTAG)”, 1.45; as for “CATGGGTCTTGGGTTCTAACCTGTTGCCT (site CCTGGGTCTAA)”, 0.0946. As for “CATTAACCTTGGGTTCTAACCTGTTGCCT (site CATTAACCTAG)”, the figure is 1.15; as for “CATTAACCTTGGGTTCTAACCTGTTGCCT (site TACTAACCTAG)”, 0.208; as for “CATTACTCTTGGGTTCTAACCTGTTGCTT (site CATTACTCTAA)”, 0.622. Take “CATTACTCTTGGGTTCTAACCTGTTGCTT (site CTTTCCTCTAA)”: the “recombinant barcode read abundance (log10)” value came to 0.032. As to “CATTCACCTTGGGTTCTAACCTGTTGCCT (site AATTCACCTAG)”, the “recombinant barcode read abundance (log10)” value turned out to be 0.153. With “CATTCACCTTGGGTTCTAACCTGTTGCCT (site CATTCACCTAG)”, the “recombinant barcode read abundance (log10)” value stood at 0.39. As to “CATTCACCTTGGGTTCTAACCTGTTGCCT (site GATTCACCTAG)”, the “recombinant barcode read abundance (log10)” value came out at 0.0621.

For “CATTCACCTTGGGTTCTAACCTGTTGCCT (site TATTCACCTAG)”, the “recombinant barcode read abundance (log10)” value was 0.111. Turning to “CATTTAGCTTGGGTTCTAACCTGTTGCGG (site AGGGCGCCTAA)”, the “recombinant barcode read abundance (log10)” value worked out at 0.0282. As to “CATTTAGCTTGGGTTCTAACCTGTTGCGG (site CATTTAGCTCC)”, the “recombinant barcode read abundance (log10)” value was 1.06. The same measure for “CATTTCCCTTGGGTTCTAACCTGTTGCCT (site CATTTCCCTAA)”: 0.0164; for “CATTTCCCTTGGGTTCTAACCTGTTGCCT (site CATTTCCCTAG)”: 0.23. Take “CCAAATCCTTGGGTTCTAACCTGTTGCAT (site CCAAATCCTAT)”: the “recombinant barcode read abundance (log10)” value was determined as 0.189. Turning to “CCAAATCCTTGGGTTCTAACCTGTTGCAT (site TGTCTAGCTCC)”, the “recombinant barcode read abundance (log10)” value was determined as 0.697. In the case of “CCAAGCACTTGGGTTCTAACCTGTTGCCT (site CCAAGCACTAG)”, the “recombinant barcode read abundance (log10)” value amounted to 0.624. For the sequence “CCAAGCACTTGGGTTCTAACCTGTTGCCT (site CCAAGCCCTAG)”, the “recombinant barcode read abundance (log10)” value was 0.138. Consider “CCAAGCACTTGGGTTCTAACCTGTTGCCT (site CCAAGCGCTAG)”, for which the “recombinant barcode read abundance (log10)” value came out at 0.0822. As for “CCAAGCACTTGGGTTCTAACCTGTTGCCT (site CCAAGCTCTAG)”, the figure is 0.172.

As to “CCAAGGCCTTGGGTTCTAACCTGTTGCCG (site CCAAGGCCTCG)”, the “recombinant barcode read abundance (log10)” value was determined as 0.0466. On to “CCAAGGCCTTGGGTTCTAACCTGTTGCCG (site TTCGCATCTAA)”, for which the “recombinant barcode read abundance (log10)” value was 0.208. As to “CCAAGGGCTTGGGTTCTAACCTGTTGCGG (site CCAAGGGCTCA)”, the “recombinant barcode read abundance (log10)” value came to 0.628. “CCAAGGGCTTGGGTTCTAACCTGTTGCGG (site CCAAGGGCTCC)”: the “recombinant barcode read abundance (log10)” value worked out at 2.52. Turning to “CCAAGGGCTTGGGTTCTAACCTGTTGCGG (site CCAAGGGCTCG)”, the “recombinant barcode read abundance (log10)” value amounted to 0.094.

As to “CCAAGGGCTTGGGTTCTAACCTGTTGCGG (site CCAAGGGCTCT)”, the “recombinant barcode read abundance (log10)” value is 2.18. Turning to “CCAAGTACTTGGGTTCTAACCTGTTGCTT (site CCAAGTACTAA)”, the “recombinant barcode read abundance (log10)” value was found to be 0.387. As for “CCAAGTACTTGGGTTCTAACCTGTTGCTT (site CCACGAACTAA)”, the figure is 0.106; as for “CCAATGTCTTGGGTTCTAACCTGTTGCGT (site CCAATGTCTAC)”, 1.03.

“CCAATGTCTTGGGTTCTAACCTGTTGCGT (site GTTCGTCCTTG)”: the “recombinant barcode read abundance (log10)” value is 0.047. In the case of “CCACACACTTGGGTTCTAACCTGTTGCCT (site CAATACACTAG)”, the “recombinant barcode read abundance (log10)” value came to 0.0103.

“CCACACACTTGGGTTCTAACCTGTTGCCT (site CCACACACTAG)”: the “recombinant barcode read abundance (log10)” value came to 0.345. The same measure for “CCACCGACTTGGGTTCTAACCTGTTGCCT (site CCACCGACTAG)”: 0.0699; for “CCACCGACTTGGGTTCTAACCTGTTGCCT (site GCACCAACTAG)”: 0.257. For the sequence “CCACCGCCTTGGGTTCTAACCTGTTGCCT (site ACACCGCCTAG)”, the “recombinant barcode read abundance (log10)” value was determined as 0.0161. “CCACCGCCTTGGGTTCTAACCTGTTGCCT (site CCACCGCCTAG)”: the “recombinant barcode read abundance (log10)” value stood at 0.139. On to “CCACCGCCTTGGGTTCTAACCTGTTGCCT (site GCACCGCCTAG)”, for which the “recombinant barcode read abundance (log10)” value was found to be 0.211. The same measure for “CCACCGCCTTGGGTTCTAACCTGTTGCCT (site TCACCGCCTAG)”: 0.0912; for “CCACGTTCTTGGGTTCTAACCTGTTGCCT (site CCACGTTCTAG)”: 0.181.

For the sequence “CCACGTTCTTGGGTTCTAACCTGTTGCCT (site CTACGTTCTAG)”, the “recombinant barcode read abundance (log10)” value stood at 0.0541.

On to “CCACTAGCTTGGGTTCTAACCTGTTGCAG (site AATGGGTCTAA)”, for which the “recombinant barcode read abundance (log10)” value amounted to 0. Regarding “CCACTAGCTTGGGTTCTAACCTGTTGCAG (site CCACTAGCTCT)”, the “recombinant barcode read abundance (log10)” value stood at 0.85. Take “CCACTGCCTTGGGTTCTAACCTGTTGCCT (site CCACTACCTAG)”: the “recombinant barcode read abundance (log10)” value stood at 0.734.

Regarding “CCACTGCCTTGGGTTCTAACCTGTTGCCT (site CCACTCCCTAG)”, the “recombinant barcode read abundance (log10)” value is 0.229. Consider “CCACTGCCTTGGGTTCTAACCTGTTGCCT (site CCACTGCCTAG)”, for which the “recombinant barcode read abundance (log10)” value came out at 0.862.

Consider “CCACTGCCTTGGGTTCTAACCTGTTGCCT (site CCACTTCCTAG)”, for which the “recombinant barcode read abundance (log10)” value stood at 0.0699.
